Earlier results on two molecules are cited in patent US20210196621A1, “ALCOHOL-FREE BOTANICAL ORAL CARE PRODUCTS” (The Trustees of Columbia University in the City of New York, priority 2018, published 2021).

For data set [1] the following is noted: oral rinses, WO 2014/092999.

On to `[H]/N=C(\N/C(=N/[H])NCCCCCCNC(=N)NC(=N)Nc1ccc(Cl)cc1)Nc1ccc(Cl)cc1` [chlorhexidine], for which the “Synergism with botanical blend absent pomegranate extract” value (absent pomegranate extract) is “did not show significant synergism”. Besides, the “Synergism with botanical blends containing pomegranate extract” value (blends containing pomegranate extract) is reported as “synergistically enhanced the antibacterial activity”. In addition, the “Synergistic activity with thymol and vanilla extract” value in data set [1] is recorded as “did not”.
With PHMB, the “Synergistic activity with thymol and vanilla extract” value in data set [1] is “showed synergistic activity”.
